Experimental data taken from publication PMC8379256, “A xanthene derivative, DS20060511, attenuates glucose intolerance by inducing skeletal muscle-specific GLUT4 translocation in mice” (Communications Biology, 2021).
Values joined by “and” are separate entries in the source; they are usually repeats but may differ in a detail not shown here. Equal values may be shown once.

Test system: L6-GLUT4myc myotubes
Assay: GLUT4 translocation: cell surface GLUT4myc by anti-Myc antibody assay in L6-GLUT4myc myotubes
Assay type: cell-based, rat
Set-up: key to GLUT4 translocation: fold of vehicle-treated group
Experimental: The L6-GLUT4myc rat myoblast cell line was obtained from Dr. Amira Klip and Dr. Philip Bilan, through a license granted by The Hospital for Sick Children, 555 University Avenue, Toronto, Ontario, Canada M5G 1 × 8; or purchased from Kerafast, Boston, MA (ESK202)[43]. The 3T3-L1-GLUT4myc fibroblast cell line was provided by Dr. Tomoyuki Yuasa, Tokushima University[44]. L6-GLUT4myc myoblasts were grown in MEMα (32571036, Thermo Fisher Scientific, Waltham, MA) supplemented with 10% FBS and 1% antibiotics, and then induced to differentiate into myotubes in MEMα supplemented with 2% FBS and 1% antibiotics for 5–8 days. 3T3-L1-GLUT4myc fibroblasts were induced to differentiate into adipocytes as described previously,[45] with minor modifications. Briefly, cells were grown to confluence in growth medium: DMEM (10569010, Thermo Fisher Scientific) supplemented with 10% FBS and 1% antibiotics, and then induced to differentiate into adipocytes in growth medium supplemented with 1 μM dexamethasone, 2 μM rosiglitazone, 0.5 mM isobutylmethylxanthine, and 10 μg mL^−1 insulin for 2 days. The adipocytes were then cultured in growth medium supplemented with 10 μg mL^−1 insulin for a few days before being used for the experiments.
Cell surface GLUT4 levels in the L6-GLUT4myc myoblasts and myotubes were determined by antibody binding assay as described previously[43],[44], with minor modifications. Briefly, cells in a 96- or 24-well plate were starved in serum-free MEMα (0.1% BSA and 1% antibiotics) for 3 h and then treated with the indicated concentrations of DS20060511 and/or insulin for 30 min at 37 °C. After fixation with 4% paraformaldehyde, the cells were incubated with 1% glycine in PBS at 4 °C for 10 min, and blocked with 10% normal goat serum and 3% BSA in PBS at 4 °C for 30 min. The cells were then incubated with anti-c-Myc antibody (sc-40, 1:500) diluted with blocking buffer at 4 °C for 1 h, washed with cold PBS(+), incubated with HRP-conjugated anti-mouse IgG diluted with blocking buffer at 4 °C for 30 min, and then washed again. SuperSignal ELISA Pico Chemiluminescent Substrate (Thermo Fisher Scientific) was added and the luminescent signal was measured. To investigate GLUT4 translocation in the 3T3-L1-GLUT4myc adipocytes, the cells were prepared in a 24-well plate, and anti-c-Myc antibody (sc-789, 1:1000), HRP-conjugated anti-rabbit IgG and SIGMAFAST OPD regent (Sigma–Aldrich) were added for optical detection of the cell surface GLUT4myc levels. The GLUT4 translocation activity was normalized to that in the vehicle-treated group.

C/C1=C/C(=O)O[C@@H]2C[C@@H](CC[C@H](C)/C=C\CC1)O[C@@](O)([C@@H]1CSC(=O)N1)C2 [Latrunculin B, reference compound]
effect on GLUT4 translocation induced by insulin (100 nM insulin, Latrunculin B 10-200 nM, Fig. 4d): suppressed GLUT4 translocation induced by insulin
effect on GLUT4 translocation induced by DS20060511 (30 μM DS20060511, Latrunculin B 10-200 nM, Fig. 4d): not that induced by DS20060511 treatment
GLUT4 translocation (Control (no insulin or DS20060511), Latrunculin B 10 nM): 1.16 and 0.86 and 0.98
GLUT4 translocation (Control, Latrunculin B 30 nM): 0.98 and 1.11 and 0.90
GLUT4 translocation (Control, Latrunculin B 100 nM): 1.11 and 0.92 and 0.97
GLUT4 translocation (Control, Latrunculin B 200 nM): 1.06 and 1.00 and 0.94
